In US9889093B2, “Application of andrographolide in the preparation of a pharmaceutical for treatment of inflammatory bowel disease, andrographolide enteric targeting micropellet, and method for preparation thereof” (TASLY PHARMACEUTICAL GROUP CO., LTD., priority 2013, dated 2018):
Marks after values point to notes of the source that are not given here.

Columns and labels:
Type in all cases: in vivo
TNBS-induced UC rats = test: TNBS-induced UC rat model, different administration routes
Source text: 4 Dose Designing and Grouping • 4.1 Grouping: quarantine-qualified 84 rats were all used for making UC model. The successful rats were randomly divided into 6 groups: the model control group, the positive control group, the andrographolide low-dose intragastric group, the andrographolide high-dose intragastric group, the andrographolide low-dose intracolonical group and the andrographolide high-dose intracolonical group, 14 rats per group. • 4.2 Dose: the same doses were adopted in both intragastric and intracolonical groups. Animals were not treated in the model control group, the positive control group (mesalazine enteric tablet, 420 mg·kg^−1·d^−1), the andrographolide low-dose intragastric group (30 mg·kg^−1·d^−1), the andrographolide high-dose intragastric group (90 mg·kg^−1·d^−1), the andrographolide low-dose intracolonical group (30 mg·kg^−1·d^−1) and the andrographolide high-dose intracolonical group (90 mg·kg^−1·d^−1).
5. Method • 5.1 Method of making UC model: the rats were anesthetized. 2 mm-diameter latex tube was gently inserted into the position about 8 cm inside the body of the rats through anus, and TNBS in 50% ethanol solution (TNBS 125 mg/kg) was injected into intestinal lumen with an injector by one time, 0.5 ml/rat. The tail of the rat was lifted up for 30 s to make the model making agent (i.e., TNBS) fully infiltrate into the intestinal lumen of the rats. • 5.2 Method of administration: the same dose (1 mL/100 g) was adopted in both intragastric and intracolonical administration, once daily for consecutive 5 days. • 5.3 Method for sampling in experiment: 2 hours after the last administration, the rats were killed by cervical vertebra dislocation and abdomen was opened to separate the colon. Along mesenteric side, the intestinal lumen was cut and rinsed with 4° C. normal saline and spread on a plastic plate. • 5.4 Scoring method for colon gross morphological injury was referred to scoring method for mucosal injury (Bjelkengren G, Aronsen K F, Augustsson N E, etc. Radioprotective effect of local administration of lysine vasopressin and triglycyl lysine vasopressin on the rectal mucosa in rats[J]. Acta Oncol, 1995, 34(4):487-92) to record the mucosal injury score: dotted line blooding and small red spots (<1 mm): 1 score, piece blooding and big red spots (=1 mm): 3 score; and erosion and ulcer: 5 score.
(§1) Data were expressed as mean+standard deviation (x±S). All numerical variables were analyzed with SPSS13.0 software by one-way ANOVA. T-test analysis was used for inter-group comparison.

DSS-induced UC mice = test: DSS-induced UC mouse model, disease active index; conditions: mesalazine enteric tablet 227.5 mg/kg/d
Source text: 4 Dose Designing and Grouping • 4.1 Grouping: quarantine-qualified 84 mice were randomly divided into 6 groups: the model control group, the positive control group, the tested drug low-dose intragastric group, the tested drug high-dose intragastric group, the tested drug low-dose intracolonical group and the tested drug high-dose intracolonical group, 14 mice per group. All animals drank 5% DSS solution daily for consecutive 14 days to establish UC model. Animals were administrated with the drug for treatment on the 2nd day after being given 5% DSS drinking water. • 4.2 Dose: in this study, dose of administration of the mice in all groups was designed on the basis of client's requirements, and the same doses were adopted in both intragastric and intracolonical groups. Animals were not treated in the model control group, the positive control group (mesalazine enteric tablet, 227.5 mg·kg^−1·d^−1), the andrographolide low-dose intragastric group (60 mg·kg^1·d^−1), the andrographolide high-dose intragastric group (180 mg·kg^−1·d^−1), the andrographolide low-dose intracolonical group (60 mg·kg^−1·d^−1) and the andrographolide high-dose intracolonical group (180 mg·kg^−1·d^−1).
5 Method • 5.1 Method of making UC model: all animals drank 5% DSS solution daily for consecutive 14 days. • 5.2 Method of administration: on the 2nd day after modeling, the mice were treated intragastrically or intracolonically with the drug at 1 mL/100 g once a day for consecutive 14 days. • 5.3 Method for sampling in experiment: 2 hours after the last administration, the mice were killed by cervical vertebra dislocation and abdomen was opened to separate the colon. Along mesenteric side, the intestinal lumen was cut and rinsed with 4° C. normal saline and spread on a plastic plate. • 5.4 Method for evaluating disease active index (DAI): the disease active index was assessed at the 7th and 14th day after administration. The method was presented together with the following three parameters: the body weight loss percentages (unchanged BW: 0 score, 1˜5: 1 score, 5˜10: 2 score, 10˜15: 3 score, more than 15: 4 score), stool viscosity (normal stool: 0 score, loosen stool: 2 score, diarrhea: 4 score) and blood stool (normal stool: 0 score, occult blood stool: 2 score and positive blood stool: 4 score). Total score of three parameters was divided by 3 to give the DAI, namely DAI=(BW index score+stool character score+stool blood score)/3.
6 Observation Indices • 6.1 Observation: the general clinical symptoms in the mice were observed daily from the beginning to the end of the experiment, and the stool, mental status and death status were recorded. • 6.2 Body weight: BW was recorded weekly from the beginning to the end of the experiment. • 6.3 Calculation of DAI: DAI was calculated on the 7th and 14th day after administration so as to assess disease activity. • 6.4 The colon mucosal tissue 8˜10 cm away from the anus was sampled, embedded with paraffin and stained with routine HE. Colon mucosal injury was observed by a microscope and histological injury was scored based on the following indices: ulcer inflammatory granuloma, fibrosis and pathological degree.
as §1

[1] = test system: TNBS-induced colitis mice; test: TNBS-induced UC (colitis) mouse model
Description: 5% (w/v) TNBS solution was diluted with double-distilled water and mixed with 50% (v/v) ethanol in equal volume to have 1.5% (w/v) TNBS solution. In the model control group, the mice were anesthetized with 1 wt % pentobarbital solution at a dose of 0.05 ml/10 g body weight. After being anesthetized, the mice were administrated with 1.5% (w/v) TNBS solution at a dose of 0.1 ml/mouse by gently inserting stomach perfusion device to about 3 cm depth via anus and arriving at the colon, and the IBD was induced. In the saline group, the saline was gently injected into the colon at a dose of 0.1 ml/mouse. In the normal control group, 50% (v/v) ethanol was gently injected into the colon at a dose of 0.1 ml mouse.
After one week adaptive feeding, all animals were randomly divided into 5 groups according to body weight, 10 mice in one group: the normal control group, the model control group, the andrographolide low-dose group (20 mg/kg/d), the andrographolide high-dose group (40 mg/kg/d) and the positive control group (Sulfasalazine group, 300 mg/kg/d). Two hours after making model, the animals in each treating groups were orally administrated twice daily with the andrographolide and once daily in the positive control group. After successive administration for 7 days, the abdomen was opened 24 hours after the last administration to observe adhesion degree between the colon and other organs. The colon was separated and weighed.
1. Body weight: after making model, body weight was measured every day to observe the change in the animals.
2. Evaluation of inflammation: the abdomen was opened 24 hours after the last administration to observe adhesion degree between the colon and other organs. Every segment of the colon was taken out and weighed to calculate the percentage of the colon weight to body weight, as the colon index. The formula was presented as follows: Decrease rate of colon specific weight=(colon index of the model control group−colon index of the treatment group)/colon index of the model control group×100%
3. Histopathological examination: a part of the colon was taken to prepare the pathological section, and the standard for score was as follows: • 0 score, no inflammatory symptoms; • 1 score, low-grade inflammation with no structure change; • 2 score, low-grade leukocyte infiltration; • 3 score, high-grade leukocyte infiltration, high vascular density, crypt extension, thickened colon wall and superficial ulcer • 4 score, high-grade leukocyte infiltrating exceeding to mucous layer, crypt extension, decrease of goblet cell, high vascular density, thickened colon wall and extensive ulcer
SPSS11.5 software was used for analysis and the data were expressed as x±S. Variance analysis was used for comparison of significant difference among groups.

[2] = test system: zebra fish Crohn's disease model; test: Zebra fish Crohn's disease model (TNBS), efficacy; conditions: intestinal tissue; prednisolone 10 μM; x ± SE, n = 10
[3] = mesalazine enteric tablet 420 mg/kg, once daily 5 days
[4] = sulfasalazine 300 mg/kg/d, once daily, 7 days

`Nc1ccc(O)c(C(=O)O)c1` [Positive control group, mesalazine, reference compound] was tested, and the “Gross morphological injury score” value (TNBS-induced UC rats; [3]) was 3.16 ± 1.97, the Ulcer ratio (TNBS-induced UC rats; [3]) was 35.45* % and the “Formless watery stool symptoms, course” value (TNBS-induced UC rats; positive control group 420 mg/kg) was “most of watery stool symptoms disappeared in the rats on the 5th˜6th days”. For the same molecule, the “DAI on the 7th day” value (DSS-induced UC mice) was 1.31 ± 0.14 and the “DAI on the 14th day” value (DSS-induced UC mice) was 1.10 ± 0.55.
`O=C(O)c1cc(/N=N/c2ccc(S(=O)(=O)Nc3ccccn3)cc2)ccc1O` [Sulfasalazine, reference compound] was tested, and the “Body weight increase compared with the model control group” value ([1]; FIG. 1, treated groups) was “increased faster than that in the model control group”, the Colon scores ([1]; histopathological score 0-4, sulfasalazine 300 mg/kg/d, 7 days) was 2.8* and the Colon indices ([1]; percentage of colon weight to body weight, sulfasalazine 300 mg/kg/d, 7 days) was 1.75 ± 0.43. For the same molecule, the Body weight [1, 4] was 19.13 ± 0.99 g, the Colon weight [1, 4] was 0.33 ± 0.06 g and the “Intestinal elasticity compared with the model control group” value ([1]; treated groups, after 7 days) was “higher than that in the model control group”. For the same molecule, the “Decrease rate of colon specific weight” value ([1]; vs model control group, sulfasalazine 300 mg/kg/d, 7 days) was 47.87%.
In the case of `C[C@]12C=CC(=O)C=C1CC[C@@H]1[C@@H]2[C@@H](O)C[C@@]2(C)[C@H]1CC[C@]2(O)C(=O)CO` [prednisolone, reference compound], the “Number of Neutrophil” value [2] is reported as 14 ± 0.60.
